Laboratory results taken from patent US10227290B2, “Glycosphingolipids for use in modulating immune responses” (The Regents of the University of California, priority 2012, dated 2019).

Assays:
[1] = system: Peripheral blood mononuclear cells (PBMCs), CD3+Vα24+ NKT cells; test: In vitro expansion of CD3+Vα24+ NKT cells from human PBMCs; format: cell-based; conditions: 13 days; 0.1 μg/ml KRN7000, 1 μg/ml α-GalCerBf, 1 μg/ml ceramideBf
Procedure: FIGS. 6A and 6B illustrate that α-GalCerBf binds human CD1d and activates human NKT cells in vitro. FIG. 6A: PBMCs were cultured for 13 days with 0.1 μg/mlKRN7000, 1 μg/ml α-GalCerBf, or 1 μg/ml ceramideBf. Dot plots show CD3^+Vα24^+NKT cells pre- and post-expansion. The data shown are representative of at least two individual experiments performed with six individual donors. FIG. 6B: Human NKT cells were purified after two rounds of expansion with 1 μg/ml α-GalCerBf and restimulated with 10 μg/ml α-GalCerBf in the presence or absence of control Ig or anti-Cd1d blocking antibodies. IFN-γ secretion was measured in supernatants 40-48 hours later. Data are representative of two independent experiments.
The capability of α-GalCerBf to stimulate freshly isolated NKT cells was determined. A first experiment was performed to determine whether Vα24^+ cells could be expanded in vitro with α-GalCerBf as previously described for KRN7000 (see, e.g., Rogers et al., J. Immunol. Meth. 285:197-214 (2004)). Peripheral blood mononuclear cells (PBMCs) were cultured with 0.1 μg/ml KRN7000, 1 μg/ml α-GalCerBf, or 1 μg/ml ceramideBf for 13 days. The presence of CD3 Vα24^+ cells was then assessed by flow cytometry. At least two individual experiments performed with six individual donors. […] IFN-γ secretion was measured in supernatants 40-48 hours later.

[2] = system: cyclophosphamide (CY) induced diabetes; test: Cyclophosphamide-induced diabetes mouse model; format: in vivo, NOD mice; conditions: 25 μg intraperitoneally on days 0, 2, 4, 6, 8; diabetic = blood glucose above 250 mg/dL; 100% of DMSO controls diabetic
Procedure: FIG. 8 presents a graph illustrating the percent of animals that developed diabetes in a cyclophosphamide-induced diabetes mouse model. Groups of animals received DMSO only, α-GalCerBf, or KRN7000. Number of animals is represented by n. Mice were considered diabetic when blood glucose was above 250 mg/dL. Blood glucose levels were measured at the time point shown. Data are representative of three independent experiments. KRN7000 prevents cyclophosphamide (CY) induced diabetes in a Non-Obese Diabetic (NOD) mouse model (see, e.g., Sharif et al., Nat. Med. 7:1057-62 (2001)). Prevention of diabetes in this model is believed to be associated with suppression of T and B cell responses to islet antigens as well as a polarization towards TH2-like responses (see Sharif, supra). This example describes the effect of α-GalCerBf in the CY induced diabetes mouse model. Groups of twelve-week old NOD female mice were given 300 mg/kg cyclophosphamide intraperitoneally on day 0. Groups of mice received DMSO (n=4), or 25 μg α-GalCerBf (n=7) or 5 μg KRN7000 (n=3) diluted in DMSO intraperitoneally on days 0, 2, 4, 6, and 8. Diabetes progression was monitored by measuring blood glucose at each time point (see FIG. 8). […] Kaplan-Meier survival curves were determined by a log-rank test using Prism software.

liver NKT cells = test: In vivo activation of NKT cells by transfer of sphingolipid-pulsed BMDCs; design: species or system C57BL/6 mice; conditions: without re-stimulation; BMDCs pulsed with α-GalCerBf
Procedure: FIGS. 7A-7F illustrate that α-GalCerBf activates NKT cells in vivo. Bone marrow-derived dendritic cells (BMDCs) were pulsed in vitro with LPS only or LPS+α-GalCerBf for 24 hr. Then 0.4×10^6 cells were treated with control Ig or anti-CD1d blocking antibody and then transferred to WT mice. Liver mononuclear cells were analyzed 16-18 hr later. Data shown were pooled from three independent experiments. FIGS. 7A-7C: Expression of CD25 and CD69 on gated CD3^+tetramer^+ cells. Representative flow cytometry plots and pooled data showing fold change of CD25 and CD69 surface expression compared to NKT cells isolated from mice transferred with LPS-pulsed BMDCs. FIGS. 7D and 7E provide representative flow cytometry plots and pooled data, respectively, of intracellular IFN-γ expression on gated CD3^+ tetramer^+ cells. FIG. 7F presents serum IFN-γ levels. […]
Mice were sacrificed 16-18 hr after transfer of 0.4×10^6 mature CD86^hiMHCII^hi BMDCs. […] All isolations were performed in the presence of brefeldin A. After cell surface staining, cells were fixed in Cytofix/Cytoperm (BD Biosciences) according to the manufacturer's instructions and stained for intracellular cytokines Serum IFN-γ was measured by ELISA. […]
As described herein, because α-GalCerBf is an agonist of NKT cell hybridomas and freshly isolated NKT cells in culture, the capability of α-GalCerBf to activate NKT cells in vivo was determined. […]

Row | Structure (SMILES) | Expansion of a population of CD3+Vα24+ cells [1] | Mice in which diabetes development was prevented [2] | Liver NKT cells expressing IFN-γ (liver NKT cells)
1 | CC(C)CCCCCCCCCCC[C@@H](O)CC(=O)N[C@@H](CO)[C@H](O)CCCCCCCCCCCC(C)C [ceramideBf] | did not show an expansion |  | 
2 | CC(C)CCCCCCCCCCC[C@@H](O)CC(=O)N[C@@H](CO[C@H]1OC(CO)[C@H](O)[C@H](O)C1O)[C@H](O)CCCCCCCCCCCC(C)C (stereo partly drawn) [α-GalCerBf] |  | more than 40% | 15%
